Source: patent US5464617A, “β-lactam compounds” (Hoffmann-La Roche Inc., priority 1994, dated 1995)
Values after ≈ are worked out from the molar mass of the structure shown. Structures can show the parent of a compound that is named as a salt.

Columns and labels:
[1] = tested on: E. coli 1346; assay: Antibacterial activity of the products per se, serial dilution method in liquid medium (Test E); format: cell-based; conditions: product per se; for MIC E. coli 1346 (E): test E; for MIC E. coli 1346: Table 3, liquid medium
Description: The antibacterial activity of the products per se is illustrated on the basis of Table 3 hereinafter, the minimum inhibitory concentration […] in vitro against E. coli 1346 being determined using the serial dilution method in liquid medium: […]

[2] = tested on: Citrobacter freundii 1982; assay: MIC in vitro of a 1:4 combination of ceftriaxone with a compound of formula I (Test D); format: cell-based; conditions: for MIC C. freundii 1982 (D): test D; for MIC C. freundii 1982: Table 2
Experimental: The minimum inhibitory concentration in vitro ([…]) of a 1:4 combination of ceftriaxone with a compound of formula I against Citrobacter freundii 1982 was measured and compiled in Table 2 hereinafter.

[3] = Table 4, 1:4 combination of ceftriaxone with the compound
[4] = 1:4 combination of ceftriaxone with the compound

MIC E. coli 1346 (E) ([1]; Table 4) [µg/mL] | MIC C. freundii 1982 (D) [2, 3] [µg/mL] | SMILES | further results
 |  | CC(=O)N1C[C@H]2OC(CSc3nnnn3C)=C(C(=O)O)N3C(=O)[C@@H]1[C@@H]23 [Example 35, (1aS,3aR,6bS)-2-Acetyl-5-(1-methyl-1H-tetrazol-5-yl-sulphanylmethyl)-1-oxo-1,1a,2,3,3a,6b-hexahydro-4-oxa-2,6 a-diazacyclobut[cd]indene-6-carboxylic acid sodium salt] | MIC E. coli 1346 (E) ([1]; Table 5, particularly preferred products): 0.5 µg/mL; MIC C. freundii 1982 (D) ([2]; Table 5, particularly preferred products, 1:4 combination with ceftriaxone): 1 µg/mL
16 | 0.5 | NC(=O)OCC1=C(C(=O)O)N2C(=O)[C@@H]3[C@H]2[C@H](C1)CN3C(=O)Cc1cccs1 [58(b), (1aS, 3aR,6bR)-5-Carbamoyloxymethyl-1-oxo-2-(thiophen-2-yl-acetyl)-1a,2,3,3a,4,6b-hexahydro-1H-2,6a-diazacyclobut[cd]indene-6-carboxylic acid sodium salt] | 
8 | 2 | CC(=O)N1C[C@H]2CC(Sc3nnnn3C)=C(C(=O)O)N3C(=O)[C@@H]1[C@@H]23 [Example 3(aa), (1aS,3aR,6bR)-2-Acetyl-5-(1-methyl-1H-tetrazol-5-ylsulphanyl)-1-oxo-1a,2,3,3a,4,6b-hexahydro-1H-2,6a-diazacyclobut[cd]indene-6-carboxylic acid sodium salt] | 
2 | 0.5 | Cn1nnnc1SCC1=C(C(=O)O)N2C(=O)[C@@H]3[C@H]2[C@H](C1)CN3C(=O)C(F)(F)F [Example 19(c), (1aS,3aR,6bR)-5-(1-Methyl-1H-tetrazol-5-ylsulphanylmethyl)-1-oxo-2-trifluoracetyl-1a,2,3,3a,4,6b-hexahydro-1H-2,6a-diazacyclobut[cd]indene-6-carboxylic acid sodium salt] | 
4 | 4 | CC(=O)N1C[C@H]2CC(Sc3nnc(N)s3)=C(C(=O)O)N3C(=O)[C@@H]1[C@@H]23 [3(ae), (1aS,3aR,6bR)-2-Acetyl-5-(5-amino-1,3,4-thiadiazol-2-ylsulphanyl)-1-oxo-1a,2,3,3a,4,6b-hexahydro-1H-2,6a-diazacyclobut[cd]indene-6-carboxylic acid sodium salt] | 
 |  | O=C(O)CC1=C(C(=O)O)N2C(=O)[C@@H]3[C@H]2[C@H](C1)CN3C(=O)Nc1ccc(O)cc1 [13(a), (1aS,3aR,6bR)-5-carboxymethyl-2-(4-hydroxy-phenycarbamoyl)-1-oxo-1a,2,3,3a,4,6b-hexahydro-1H-2,6a-diazacyclobut[cd]indene-6-carboxylic acid sodium salt] | MIC E. coli 1346 [1]: 4 µg/mL; MIC C. freundii 1982 [2, 4]: 1 µg/mL
8 | 1 | C=CCN1C[C@H]2OC(CSc3nnnn3C)=C(C(=O)O)N3C(=O)[C@@H]1[C@@H]23 [Example 30, (1aS,3aR,6bS)-2-Allyl-5-(1-methyl-1H-tetrazol-5-ylsulphanylmethyl)-1-oxo-4-oxa-1,1a,2,3,3a,6b-hexahydro-2,6a-diazacyclobut[cd]indene-6-carboxylic acid sodium salt] | 
> 32 | 32 | O=C(O)C1=C(CSc2nnnn2CC(=O)N2CCOCC2)O[C@@H]2CN[C@@H]3C(=O)N1[C@@H]32 [29(l), (1aS,3aR,6bS)-5-(1-(2-Morpholin-4-yl-2-oxo-ethyl)-1H-tetrazol-5-ylsulphanylmethyl)-1-oxo-1,1a,2,3,3a,6 b-hexahydro-4-oxa-2,6a-diazacyclobut[cd]indene-6-carboxylic acid] | 
> 32 | 1 | Cc1nnc(SCC2=C(C(=O)O)N3C(=O)[C@@H]4[C@H]3[C@@H](CN4C(=O)Nc3ccc(O)cc3)S2)s1 [41(c), (1aS,3aR,6bS)-2-(4-Hydroxy-phenylcarbamoyl)-5-(5-methyl-1,3,4-thiadiazol-2-ylsulphanylmethyl)-1-oxo-4-thia-1,1a,2,3,3a,6b-hexahydro-2,6a-diazacyclobut[cd]indene-6-carboxylic acid sodium salt] | 
8 (≈ 19.6 µM) | 8 | O=C(Cn1nnnc1SCC1=C(C(=O)O)N2C(=O)[C@H]3NC[C@@H](O1)[C@H]32)NC1CC1 [Example 29(g), (1aS,3aR,6bS)-5-(1-(cyclopropyl-carbamoylmethyl)-1H-tetrazol-5-ylsulphanylmethyl)-1-oxo-1,1a,2,3,3a,6b-hexahydro-4-oxa-2,6a-diazacyclobut[cd]indene-6-carboxylic acid] | 
 |  | CS(=O)(=O)OC1=C(C(=O)O)N2C(=O)[C@@H]3[C@H]2[C@H](C1)CN3C(=O)NC1CCSC1=O (mixture of isomers) [9(f), (1aS,3aR,6bR)-5-Methylsulphonyloxy-1-oxo-2-[(R) and [(S)-2-oxo-tetrahydro-thien-3-ylcarbamoyl]-1a,2,3,3a,4,6b-hexahydro-1H-2,6a-diazacyclobut[cd]indene-6-carboxylic acid sodium salt] | MIC E. coli 1346 [1]: 32 µg/mL; MIC C. freundii 1982 [2, 4]: 0.12 µg/mL
> 32 | 32 | O=C(Cn1nnnc1SCC1=C(C(=O)O)N2C(=O)[C@H]3NC[C@@H](O1)[C@H]32)NCCc1ccccc1 [29(h), (1aS,3aR,6bS)-1-Oxo-5-(1-(phenylethyl-carbamoylmethyl)-1H-tetrazol-5-ylsulphanylmethyl)-1,1a,2,3,3a,6b-hexahydro-4-oxa-2,6a-diazacydobut[cd]indene-6-carboxylic acid] | 
16 (≈ 40.6 µM) | 0.5 | CCOC(=O)N1C[C@H]2CC(CSc3nnnn3C)=C(C(=O)O)N3C(=O)[C@@H]1[C@@H]23 [Example 62, (1aS,3aR,6bR)-5-(1-Methyl-1H-tetrazol-5-ylsulphanylmethyl)-1-oxo-1a,2,3,3a,4,6b-hexahydro-1H-2,6a-diazacyclobut[cd]indene-2,6-dicarboxylic acid 2-ethyl ester] | 
> 32 | 2 | N#C/C=C\C1=C(C(=O)O)N2C(=O)[C@@H]3[C@H]2[C@H](C1)CN3C(=O)Nc1ccc(O)cc1 [49(a), (Z) -(1aS,3aR,6bR)-5-(2-Cyanovinyl)-2-(4-hydroxyphenylcarbamoyl)-1-oxo-1a,2,3,3a,4,6b-hexahydro-1H-2,6a-diazacyclobut[cd]indene-6-carboxylic acid sodium salt] | 
 |  | Cc1ccc(S(=O)(=O)OC2=C(C(=O)O)N3C(=O)[C@@H]4[C@H]3[C@H](C2)CN4C(=O)Nc2ccc(O)cc2)cc1 [9(i), (1aS,3aR,6bR)-2-(4-Hydroxy-phenylcarbamoyl)-5-(4-methyl-phenylsulphonyloxy)-1-oxo-1a,2,3,3a,4,6b-hexahydro-1H-2,6a-diazacyclobut[cd]indene-6-carboxylic acid sodium salt] | MIC E. coli 1346 [1]: 16 µg/mL; MIC C. freundii 1982 [2, 4]: 2 µg/mL
2 | 1 | O=C(NCc1ccc(O)cc1)OCC1=C(C(=O)O)N2C(=O)[C@H]3NC[C@@H](C1)[C@H]32 [Example 101, (1aS,3aR,6bR)-5-[(4-Hydroxy-benzyl)-carbamoyloxymethyl]-1-oxo-1a,2,3,3a,4,6b-hexahydro-1H-2,6a-diazacyclobut[cd]indene-6-carboxylic acid trifluoroacetate] | 
0.5 | 1 | O=C(Nc1ccc(O)cc1)OCC1=C(C(=O)O)N2C(=O)[C@@H]3[C@H]2[C@H](C1)CN3C(=O)C(F)(F)F [90(b), (1aS,3aR,6bR)-5-(4-Hydroxy-phenylcarbamoyloxymethyl)-2-trifluoroacetyl-1-oxo-1a,2,3,3a,4,6b-hexahydro-1H-2,6a-diazacyclobut[cd]indene-6-carboxylic acid sodium salt] | 
2 | 1 | CNC(=O)Cn1nnnc1SCC1=C(C(=O)O)N2C(=O)[C@@H]3[C@H]2[C@H](C1)CN3C(C)=O [74(a), (1aS,3aR,6bR)-2-Acetyl-5-(1-methylcarbamoylmethyl-1H-tetrazol-5-ylsulphanylmethyl)-1-oxo-1a,2,3,3a,4,6b-hexahydro-1H-2,6a-diazacyclobut[cd]indene-6-carboxylic acid sodium salt] | 
> 32 | 1 | O=C(O)C1=C(Sc2ccncc2)C[C@@H]2CN(C(=O)Nc3ccc(O)cc3)[C@@H]3C(=O)N1[C@H]23 [3(o), (1aS,3aR,6bR)-2-(4-Hydroxy-phenylcarbamoyl)-1-oxo-5-(pyridin-4-ylsulphanyl)-1a,2,3,3a,4,6b-hexahydro-1H-2,6a-diazacyclobut[cd]indene-6-carboxylic acid sodium salt] | 
0.5 | 2 | N[C@@H](C(=O)N1C[C@H]2CC(COC(=O)NCc3ccncc3)=C(C(=O)O)N3C(=O)[C@@H]1[C@@H]23)c1ccccc1 [100(d), (1aS,3aR,6bR)-2-[(R)-2-phenyl-glycyl]-1-oxo-5-(pyridin-4-ylmethylcarbamoyloxymethyl)-1a,2,3,3a,4,6b-hexahydro-1H-2,6a-diazacyclobut[cd]indene-6-carboxylic acid hydrochloride] | 

SMILES | MIC E. coli 1346 (E) ([1]; Table 4) [µg/mL] | MIC C. freundii 1982 (D) [2, 3] [µg/mL] | further results
N#C/C=C\C1=C(C(=O)O)N2C(=O)[C@H]3NC[C@@H](C1)[C@H]32 [48(a), (Z)-(1aS,3aR,6bR)-5-(2-Cyanovinyl)-1-oxo-1a,2,3,3a,4,6b-hexahydro-1H-2,6a-diazacyclobut[cd]indene-6-carboxylic acid trifluoroacetate] | 16 | 4 | 
O=C(O)C1=C(CSc2ncccn2)C[C@@H]2CN[C@@H]3C(=O)N1[C@H]23 [Example 71, (1aS,3aR,6bR)-1-Oxo-5-(pyrimidin-2-ylsulphanylmethyl)-1a,2,3,3a,4,6b-hexahydro-1H-2,6a-diazacyclobut[cd]indene-6-carboxylic acid trifluoroacetate] | 8 | 2 | 
